Reference: patent US11981658B2, “Substituted aminopyridine compounds as EGFR inhibitors” (YUHAN CORPORATION, priority 2021, dated 2024)
Where two headings read alike, the source gives them in different places.

Columns and labels:
[1] = molecular target: EGFR wildtype (WT) (Homo sapiens, UniProt P00533); test: Biochemical EGFR kinase inhibition assay (Lance Ultra TR-FRET), wildtype
How it was run: (§1)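 Step 1: compound in kinase buffer, 0.003–10 μM. Step 2: kinase reaction 1 h at room temperature. Step 4: TR-FRET read at 615/665 nm; IC50 calculated.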

[2] = molecular target: EGFR Del19/C797S (Homo sapiens, UniProt P00533, C797S/DEL746-750); test: Biochemical EGFR kinase inhibition assay (Lance Ultra TR-FRET), double mutant del19/C797S
EGFR Del19/C797S, sequence (P00533 with tags, fused parts or gaps DEL746-750/C797S): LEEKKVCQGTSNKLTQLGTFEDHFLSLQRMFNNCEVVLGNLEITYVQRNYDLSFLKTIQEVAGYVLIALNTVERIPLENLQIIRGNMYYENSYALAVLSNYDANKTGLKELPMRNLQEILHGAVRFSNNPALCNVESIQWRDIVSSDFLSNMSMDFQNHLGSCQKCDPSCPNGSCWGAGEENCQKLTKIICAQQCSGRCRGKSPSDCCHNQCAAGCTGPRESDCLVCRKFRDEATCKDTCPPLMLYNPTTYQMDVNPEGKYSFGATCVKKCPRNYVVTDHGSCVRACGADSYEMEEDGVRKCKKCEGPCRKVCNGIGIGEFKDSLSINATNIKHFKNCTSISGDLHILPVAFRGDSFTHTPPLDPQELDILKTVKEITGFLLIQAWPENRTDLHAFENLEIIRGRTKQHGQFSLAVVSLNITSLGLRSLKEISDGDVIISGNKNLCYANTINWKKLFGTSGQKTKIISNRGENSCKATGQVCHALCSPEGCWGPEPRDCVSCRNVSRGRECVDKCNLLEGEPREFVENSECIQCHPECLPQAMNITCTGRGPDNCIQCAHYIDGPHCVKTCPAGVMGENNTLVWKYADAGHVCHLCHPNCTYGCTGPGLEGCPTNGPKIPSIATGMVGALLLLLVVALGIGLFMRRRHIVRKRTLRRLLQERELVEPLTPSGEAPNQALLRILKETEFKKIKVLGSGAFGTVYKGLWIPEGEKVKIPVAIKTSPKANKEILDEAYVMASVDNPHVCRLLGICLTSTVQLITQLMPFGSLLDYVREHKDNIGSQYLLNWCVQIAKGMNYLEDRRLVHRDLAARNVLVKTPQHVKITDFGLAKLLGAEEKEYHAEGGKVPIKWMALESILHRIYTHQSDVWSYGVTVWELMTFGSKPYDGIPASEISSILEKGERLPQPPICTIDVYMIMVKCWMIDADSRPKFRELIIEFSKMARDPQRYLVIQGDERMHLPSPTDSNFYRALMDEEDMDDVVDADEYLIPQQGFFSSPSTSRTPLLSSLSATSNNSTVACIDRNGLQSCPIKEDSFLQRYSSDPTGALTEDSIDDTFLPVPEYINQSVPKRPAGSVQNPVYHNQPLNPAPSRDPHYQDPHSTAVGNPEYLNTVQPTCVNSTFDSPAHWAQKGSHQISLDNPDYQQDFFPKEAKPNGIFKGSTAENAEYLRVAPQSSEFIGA
How it was run: as §1

[3] = molecular target: EGFR Del19/T790M/C797S (Homo sapiens, UniProt P00533, C797S/DEL746-750/T790M); test: Biochemical EGFR kinase inhibition assay (Lance Ultra TR-FRET), triple mutant del19/T790M/C797S
EGFR Del19/T790M/C797S, sequence (P00533 with tags, fused parts or gaps DEL746-750/T790M/C797S): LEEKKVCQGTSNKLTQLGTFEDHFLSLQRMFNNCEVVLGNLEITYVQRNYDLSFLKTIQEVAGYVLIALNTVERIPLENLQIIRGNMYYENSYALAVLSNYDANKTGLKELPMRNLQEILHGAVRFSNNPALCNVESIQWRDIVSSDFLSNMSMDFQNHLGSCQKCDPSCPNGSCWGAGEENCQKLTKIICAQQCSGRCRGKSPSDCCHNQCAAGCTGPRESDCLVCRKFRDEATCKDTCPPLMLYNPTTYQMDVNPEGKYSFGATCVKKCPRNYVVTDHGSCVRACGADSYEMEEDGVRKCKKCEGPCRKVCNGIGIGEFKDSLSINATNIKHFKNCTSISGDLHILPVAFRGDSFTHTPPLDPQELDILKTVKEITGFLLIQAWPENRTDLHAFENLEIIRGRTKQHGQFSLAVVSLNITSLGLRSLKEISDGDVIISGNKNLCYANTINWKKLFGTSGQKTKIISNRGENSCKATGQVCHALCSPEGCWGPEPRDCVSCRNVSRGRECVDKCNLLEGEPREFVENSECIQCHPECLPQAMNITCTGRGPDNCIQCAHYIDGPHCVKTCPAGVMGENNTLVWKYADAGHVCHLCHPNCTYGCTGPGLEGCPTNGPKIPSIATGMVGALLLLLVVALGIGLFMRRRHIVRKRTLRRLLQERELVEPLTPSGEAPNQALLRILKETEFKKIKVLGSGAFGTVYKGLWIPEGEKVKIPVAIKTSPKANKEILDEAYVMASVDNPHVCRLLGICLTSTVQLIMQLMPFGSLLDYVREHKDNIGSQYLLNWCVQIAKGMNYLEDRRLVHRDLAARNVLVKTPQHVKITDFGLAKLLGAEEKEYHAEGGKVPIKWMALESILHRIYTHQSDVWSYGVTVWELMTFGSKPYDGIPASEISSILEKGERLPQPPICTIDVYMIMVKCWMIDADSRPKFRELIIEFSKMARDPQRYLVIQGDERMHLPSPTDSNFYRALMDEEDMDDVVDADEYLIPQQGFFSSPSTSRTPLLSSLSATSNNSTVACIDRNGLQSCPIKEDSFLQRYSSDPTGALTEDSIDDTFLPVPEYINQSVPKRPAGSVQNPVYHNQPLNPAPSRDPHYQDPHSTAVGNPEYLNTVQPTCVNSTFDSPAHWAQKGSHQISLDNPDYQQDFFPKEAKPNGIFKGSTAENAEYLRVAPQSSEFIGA
How it was run: as §1

[4] = molecular target: EGFR L858R/C797S (Homo sapiens, UniProt P00533, C797S/L858R); test: Biochemical EGFR kinase inhibition assay (Lance Ultra TR-FRET), double mutant L858R/C797S
EGFR L858R/C797S, sequence (P00533 25-1210 C797S/L858R): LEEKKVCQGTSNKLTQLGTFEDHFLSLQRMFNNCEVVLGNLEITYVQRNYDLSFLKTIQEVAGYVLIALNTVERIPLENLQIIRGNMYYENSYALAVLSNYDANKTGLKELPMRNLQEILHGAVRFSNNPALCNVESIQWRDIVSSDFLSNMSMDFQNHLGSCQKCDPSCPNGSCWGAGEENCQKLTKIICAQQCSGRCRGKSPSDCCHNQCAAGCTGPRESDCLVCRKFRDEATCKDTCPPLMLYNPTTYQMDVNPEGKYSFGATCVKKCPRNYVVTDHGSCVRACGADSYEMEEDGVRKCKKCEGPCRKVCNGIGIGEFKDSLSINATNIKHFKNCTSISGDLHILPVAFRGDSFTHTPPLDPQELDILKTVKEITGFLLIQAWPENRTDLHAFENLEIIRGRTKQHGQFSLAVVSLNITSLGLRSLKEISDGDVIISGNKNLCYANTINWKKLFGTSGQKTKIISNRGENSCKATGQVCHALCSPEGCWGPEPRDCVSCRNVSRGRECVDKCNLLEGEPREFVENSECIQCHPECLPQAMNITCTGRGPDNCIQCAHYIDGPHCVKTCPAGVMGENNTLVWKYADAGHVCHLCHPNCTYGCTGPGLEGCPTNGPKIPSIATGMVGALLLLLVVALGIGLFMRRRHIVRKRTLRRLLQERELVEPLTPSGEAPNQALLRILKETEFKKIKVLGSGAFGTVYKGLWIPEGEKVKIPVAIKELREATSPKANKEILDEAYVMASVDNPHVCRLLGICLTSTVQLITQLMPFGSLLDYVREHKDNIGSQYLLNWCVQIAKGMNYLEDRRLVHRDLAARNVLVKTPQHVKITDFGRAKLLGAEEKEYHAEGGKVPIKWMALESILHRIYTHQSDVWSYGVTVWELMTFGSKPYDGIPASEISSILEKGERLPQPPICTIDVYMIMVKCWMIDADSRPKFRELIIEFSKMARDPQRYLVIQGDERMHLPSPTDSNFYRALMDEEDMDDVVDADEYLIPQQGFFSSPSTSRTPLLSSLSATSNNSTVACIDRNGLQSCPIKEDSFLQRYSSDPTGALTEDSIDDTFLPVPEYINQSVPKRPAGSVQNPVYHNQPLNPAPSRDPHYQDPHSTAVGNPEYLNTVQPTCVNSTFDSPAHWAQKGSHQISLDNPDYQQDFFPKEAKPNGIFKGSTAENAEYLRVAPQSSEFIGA
How it was run: as §1

[5] = molecular target: EGFR L858R/T790M/C797S (Homo sapiens, UniProt P00533, C797S/L858R/T790M); test: Biochemical EGFR kinase inhibition assay (Lance Ultra TR-FRET), triple mutant L858R/T790M/C797S
How it was run: as §1

[6] = Km ATP, read-out: IC50 WT (nM) Km ATP
[7] = IC50 Del19/C797S (nM), 100 μM ATP
[8] = Km ATP, read-out: IC50 Del19/C797S (nM) Km ATP
[9] = IC50 Del19/T790M/C797S (nM), 100 μM ATP
[10] = Km ATP, read-out: IC50 Del19/T790M/C797S (nM) Km ATP
[11] = IC50 L858R/C797S (nM), 100 μM ATP
[12] = Km ATP, read-out: IC50 L858R/C797S (nM) Km ATP
[13] = IC50 L858R/T790M/C797S (nM), 100 μM ATP
[14] = Km ATP, read-out: IC50 L858R/T790M/C797S (nM) Km ATP
[15] = ATP at Km, read-out: IC50 WT (nM), Km ATP
[16] = ATP at Km, read-out: IC50 Del19/C797S (nM), Km ATP
[17] = ATP at Km, read-out: IC50 Del19/T790M/C797S (nM), Km ATP
[18] = ATP at Km, read-out: IC50 L858R/C797S (nM), Km ATP
[19] = ATP at Km, read-out: IC50 L858R/T790M/C797S (nM), Km ATP
[20] = Km ATP, read-out: IC50 WT (nM), Km ATP
[21] = Km ATP, read-out: IC50 Del19/C797S (nM), Km ATP
[22] = Km ATP, read-out: IC50 Del19/T790M/C797S (nM), Km ATP
[23] = Km ATP, read-out: IC50 L858R/C797S (nM), Km ATP
[24] = Km ATP, read-out: IC50 L858R/T790M/C797S (nM), Km ATP

EGFR wildtype (WT), sequence (P00533 25-1210): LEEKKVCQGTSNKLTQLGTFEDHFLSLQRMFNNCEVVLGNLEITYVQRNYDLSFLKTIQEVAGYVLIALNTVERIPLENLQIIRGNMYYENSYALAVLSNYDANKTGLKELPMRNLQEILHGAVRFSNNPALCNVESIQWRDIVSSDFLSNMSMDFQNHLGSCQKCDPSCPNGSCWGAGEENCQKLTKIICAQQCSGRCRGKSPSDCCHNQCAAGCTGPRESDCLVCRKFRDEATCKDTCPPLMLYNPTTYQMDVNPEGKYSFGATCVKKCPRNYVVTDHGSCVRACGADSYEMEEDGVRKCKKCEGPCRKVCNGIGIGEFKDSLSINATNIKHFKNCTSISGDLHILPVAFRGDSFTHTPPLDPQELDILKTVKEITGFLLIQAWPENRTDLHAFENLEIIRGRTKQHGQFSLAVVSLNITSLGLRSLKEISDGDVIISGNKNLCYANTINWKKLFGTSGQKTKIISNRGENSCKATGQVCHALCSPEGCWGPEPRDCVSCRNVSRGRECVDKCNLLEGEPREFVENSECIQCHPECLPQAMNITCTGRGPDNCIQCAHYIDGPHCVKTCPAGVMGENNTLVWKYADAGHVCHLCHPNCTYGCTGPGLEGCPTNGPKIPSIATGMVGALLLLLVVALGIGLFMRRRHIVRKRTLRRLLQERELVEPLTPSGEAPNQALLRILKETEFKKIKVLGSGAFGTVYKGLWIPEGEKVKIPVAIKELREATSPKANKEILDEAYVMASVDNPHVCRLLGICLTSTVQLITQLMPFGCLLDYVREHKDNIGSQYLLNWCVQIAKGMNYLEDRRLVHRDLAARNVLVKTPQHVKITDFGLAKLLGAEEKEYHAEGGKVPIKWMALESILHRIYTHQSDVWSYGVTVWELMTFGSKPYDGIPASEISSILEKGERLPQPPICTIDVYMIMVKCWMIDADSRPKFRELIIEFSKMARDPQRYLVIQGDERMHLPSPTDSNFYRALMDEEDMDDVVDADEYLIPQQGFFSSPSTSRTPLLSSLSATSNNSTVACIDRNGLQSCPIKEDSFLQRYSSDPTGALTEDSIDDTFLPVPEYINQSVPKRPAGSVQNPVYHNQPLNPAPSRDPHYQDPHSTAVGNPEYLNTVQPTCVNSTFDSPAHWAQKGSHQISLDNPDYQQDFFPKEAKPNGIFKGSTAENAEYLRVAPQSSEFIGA

IC50 ([1]; IC50 WT (nM), 100 μM ATP) | IC50 [1, 6] | IC50 [2, 7] | IC50 [2, 8] | IC50 [3, 9] | IC50 [3, 10] | IC50 [4, 11] | IC50 [4, 12] | IC50 [5, 13] | IC50 [5, 14] | IC50 [1, 15] | IC50 [2, 16] | IC50 [3, 17] | IC50 [4, 18] | IC50 [5, 19] | IC50 [1, 20] | IC50 [2, 21] | IC50 [3, 22] | IC50 [4, 23] | IC50 [5, 24] | Compound
> 10000 nM | 17.4 nM | 9.5 nM | 5.4 nM | 0.5 nM | 0.5 nM | 13.7 nM | 2.6 nM | 1.7 nM | 0.6 nM |  |  |  |  |  |  |  |  |  |  | CC(=O)N1CCC(n2cc(C#Cc3cnc(Nc4ccnc(-c5cnn(S(=O)(=O)C6CC6)c5)n4)cc3N3CCCC(O)C3)cn2)CC1 (stereo not drawn) [Example 114, 1-(4-(4-((6-((2-(1-(Cyclopropylsulfonyl)-1H-pyrazol-4-yl)pyrimidin-4-yl)amino)-4-(3-hydroxypiperidin-1-yl)pyridin-3-yl)ethynyl)-1H-pyrazol-1-yl)piperidin-1-yl)ethan-1-one]
> 10000 nM |  | 2.8 nM |  | 0.7 nM |  | 74.7 nM |  | 0.9 nM |  | 15 nM | 2 nM | 0.7 nM | 6.6 nM | 0.4 nM |  |  |  |  |  | CC1(CO)CCN(c2cc(Nc3ccnc(-c4cnn(S(=O)(=O)C5CC5)c4)n3)ncc2C#CC2CC2)CC1 [Example 250, (1-(5-(Cyclopropylethynyl)-2-((2-(1-(cyclopropylsulfonyl)-1H-pyrazol-4-yl)pyrimidin-4-yl)amino)pyridin-4-yl)-4-methylpiperidin-4-yl)methanol]
 | 8.8 nM |  | 0.4 nM |  | 0.5 nM |  | 2.6 nM |  | 0.1 nM |  |  |  |  |  |  |  |  |  |  | CN(C)C[C@H]1CC[C@H](COc2cc(Nc3ccnc(-c4cnn(S(=O)(=O)C5CC5)c4)n3)ncc2C#Cc2cnn(C3CC3)c2)CC1 [Example 60, N-(5-((1-Cyclopropyl-1H-pyrazol-4-yl)ethynyl)-4-(((1r,4r)-4-((dimethylamino)methyl)cyclohexyl)methoxy)pyridin-2-yl)-2-(1-(cyclopropylsulfonyl)-1H-pyrazol-4-yl)pyrimidin-4-amine]
> 10000 nM |  | 338 nM |  | 8.2 nM |  | 604 nM |  | 39.2 nM |  |  |  |  |  |  |  |  |  |  |  | Cn1cc(C#Cc2cnc(Nc3ccnc(-c4cnn(S(=O)(=O)C5CC5)c4)n3)cc2N2CCC(C(F)(F)F)CC2)cn1 [Example 65, 2-(1-(Cyclopropylsulfonyl)-1H-pyrazol-4-yl)-N-(5-((1-methyl-1H-pyrazol-4-yl)ethynyl)-4-(4-(trifluoromethyl)piperidin-1-yl)pyridin-2-yl)pyrimidin-4-amine]
> 10000 nM |  | 28.3 nM |  | 2.6 nM |  | 238 nM |  | 14.5 nM |  |  |  |  |  |  |  |  |  |  |  | O=S(=O)(C1CC1)n1cc(-c2nccc(Nc3cc(N[C@H]4CC[C@@H](O)CC4)c(C#Cc4ccsc4)cn3)n2)cn1 [Example 217, (1s,4s)-4-((2-((2-(1-(Cyclopropylsulfonyl)-1H-pyrazol-4-yl)pyrimidin-4-yl)amino)-5-(thiophen-3-ylethynyl)pyridin-4-yl)amino)cyclohexan-1-ol]
8550 nM |  | 1.8 nM |  | 0.5 nM |  | 26 nM |  | 0.7 nM |  | 17.5 nM | 1.6 nM |  | 0.7 nM |  |  |  |  |  |  | CN(C)C[C@H]1CC[C@@H](Nc2cc(Nc3ccnc(-c4cnn(S(=O)(=O)C5CC5)c4)n3)ncc2C#Cc2cnn(CC(F)F)c2)CC1 [Example 311, N^2-(2-(1-(Cyclopropylsulfonyl)-1H-pyrazol-4-yl)pyrimidin-4-yl)-5-((1-(2,2-difluoroethyl)-1H-pyrazol-4-yl)ethynyl)-N^4-((1s,4s)-4-((dimethylamino)methyl)cyclohexyl)pyridine-2,4-diamine]
6420 nM |  | 3.3 nM |  | 0.3 nM |  | 85.5 nM |  | 0.7 nM |  |  |  |  |  |  | 5.8 nM | 1.7 nM | 0.3 nM | 1.9 nM | 0.2 nM | CC1OCCC1C#Cc1cnc(Nc2ccnc(-c3cnn(S(=O)(=O)C4CC4)c3)n2)cc1N1CCC(C)(CO)CC1 (stereo not drawn) [Example 438, (1-(2-((2-(1-(Cyclopropylsulfonyl)-1H-pyrazol-4-yl)pyrimidin-4-yl)amino)-5-((2-methyltetrahydrofuran-3-yl)ethynyl)pyridin-4-yl)-4-methylpiperidin-4-yl)methanol]
6520 nM |  | 1.1 nM |  | 0.9 nM |  | 9.1 nM |  | 0.8 nM |  | 7.6 nM | 0.8 nM | 0.8 nM | 0.9 nM | 0.3 nM |  |  |  |  |  | CC1(CO)CCN(c2cc(Nc3ccnc(-c4cnn(S(=O)(=O)C5CC5)c4)n3)ncc2C#Cc2cccc(C(=O)N3CCOCC3)n2)CC1 [Example 265, (6-((6-((2-(1-(Cyclopropylsulfonyl)-1H-pyrazol-4-yl)pyrimidin-4-yl)amino)-4-(4-(hydroxymethyl)-4-methylpiperidin-1-yl)pyridin-3-yl)ethynyl)pyridin-2-yl)(morpholino)methanone]
844 nM |  | 4.8 nM |  | 1.5 nM |  | 9.4 nM |  | 1 nM |  |  |  |  |  |  | 9.1 nM | 2.6 nM | 1.5 nM | 1.4 nM | 0.5 nM | CN(C)CCC1CCN(c2cc(Nc3ccnc(-c4cnn(S(=O)(=O)C5CC5)c4)n3)ncc2C#Cc2cnn(CC(F)(F)F)c2)CC1 [Example 349, 2-(1-(Cyclopropylsulfonyl)-1H-pyrazol-4-yl)-N-(4-(4-(2-(dimethylamino)ethyl)piperidin-1-yl)-5-((1-(2,2,2-trifluoroethyl)-1H-pyrazol-4-yl)ethynyl)pyridin-2-yl)pyrimidin-4-amine]
> 10000 nM |  | 24.7 nM |  | 1.6 nM |  | 172 nM |  | 10.4 nM |  |  |  |  |  |  |  |  |  |  |  | Cn1cc(C#Cc2cnc(Nc3ccnc(-c4cnn(S(=O)(=O)C5CC5)c4)n3)cc2N2CCCC(F)C2)cn1 (stereo not drawn) [Example 70, 2-(1-(Cyclopropylsulfonyl)-1H-pyrazol-4-yl)-N-(4-(3-fluoropiperidin-1-yl)-5-((1-methyl-1H-pyrazol-4-yl)ethynyl)pyridin-2-yl)pyrimidin-4-amine]
> 10000 nM |  | 3.5 nM |  | 0.6 nM |  | 22.8 nM |  | 1.8 nM |  |  |  |  |  |  |  |  |  |  |  | O=S(=O)(C1CC1)n1cc(-c2nccc(Nc3cc(N4CCC(O)CC4)c(C#Cc4cnn(C5CC5(F)F)c4)cn3)n2)cn1 (stereo not drawn) [Example 82, 1-(2-((2-(1-(Cyclopropylsulfonyl)-1H-pyrazol-4-yl)pyrimidin-4-yl)amino)-5-((1-(2,2-difluorocyclopropyl)-1H-pyrazol-4-yl)ethynyl)pyridin-4-yl)piperidin-4-ol]
> 10000 nM |  | 23.9 nM |  | 1.4 nM |  | 73.9 nM |  | 6.4 nM |  |  |  |  |  |  |  |  |  |  |  | Cn1ncc(C#Cc2cnc(Nc3ccnc(-c4cnn(S(=O)(=O)C5CC5)c4)n3)cc2N2CCC(O)CC2)c1C1CC1 [Example 86, 1-(5-((5-Cyclopropyl-1-methyl-1H-pyrazol-4-yl)ethynyl)-2-((2-(1-(cyclopropylsulfonyl)-1H-pyrazol-4-yl)pyrimidin-4-yl)amino)pyridin-4-yl)piperidin-4-ol]
> 10000 nM |  | 81.9 nM |  | 7.1 nM |  | 2120 nM |  | 3.1 nM |  | 108 nM | 51.2 nM | 4 nM | 18.9 nM | 2.2 nM |  |  |  |  |  | Cc1nn(S(=O)(=O)N(C)C)cc1-c1nccc(Nc2cc(N3CCC(C)(CO)CC3)c(C#Cc3cnn(C(F)(F)F)c3)cn2)n1 [Example 272, 4-(4-((4-(4-(Hydroxymethyl)-4-methylpiperidin-1-yl)-5-((1-(trifluoromethyl)-1H-pyrazol-4-yl)ethynyl)pyridin-2-yl)amino)pyrimidin-2-yl)-N, N,3-trimethyl-1H-pyrazole-1-sulfonamide]
474 nM |  | 0.5 nM |  | 1.4 nM |  | 2.8 nM |  | 1.3 nM |  | 6.7 nM | 0.6 nM | 0.8 nM | 1.1 nM | 0.5 nM |  |  |  |  |  | CC1(CO)CCN(c2cc(Nc3ccnc(-c4cnn(S(=O)(=O)C5CC5)c4)n3)ncc2C#Cc2cnn(C3COC3)c2)CC1 [Example 245, (1-(2-((2-(1-(Cyclopropylsulfonyl)-1H-pyrazol-4-yl)pyrimidin-4-yl)amino)-5-((1-(oxetan-3-yl)-1H-pyrazol-4-yl)ethynyl)pyridin-4-yl)-4-methylpiperidin-4-yl)methanol]
